Measurements taken from the supplement of paper PMC10883282.

How the values were obtained:
Experiment in all cases: relative viability vs DMSO control (72 h) (fraction); higher = more viable cells
KHOS-240S = test system: KHOS-240S
In short: (§1)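 After seeding at densities set for 80–90% confluence in 384-well plates, sarcoma cell lines waited 24 h before 2.5 µl of serially diluted compound was added. Source plates held 10 mM down to 0.0002 mM. Plates were incubated 72 h at 37 °C with 5% CO2, with 0.1% DMSO vehicle and a 5 µM positive control, and relative viability was taken from ATPLite as percent growth averaged over up to triplicate wells, with 1 set as full and 0 as none.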

MES-SA = test system: MES-SA
In short: as §1

RD = test system: RD
In short: as §1

SW1353 = test system: SW1353
In short: as §1

SYO-1 = test system: SYO-1
In short: as §1

Cc1cccc(-c2nn3c(c2-c2ccnc4ccc(C(N)=O)cc24)CCC3)n1 [Galunisertib]
relative viability
Settings	KHOS-240S	MES-SA	RD	SW1353	SYO-1
0.00017 µM	1.06	0.925	1.06	1.01	0.972
0.00051 µM	1.07	0.922	1.07	0.967	0.942
0.00152 µM	1.06	0.916	1.079	0.991	0.913
0.00457 µM	1.06	0.897	1.095	0.954	0.898
0.01372 µM	1.04	0.911	1.081	0.962	0.867
0.04115 µM	1.01	0.91	1.09	0.926	0.824
0.1235 µM	0.996	0.9002	1.071	0.9202	0.783
0.3704 µM	0.971	0.891	1.05	0.959	0.752
1.111 µM	0.987	0.888	1.08	0.967	0.738
3.333 µM	0.966	0.863	1.12	1	0.685
10 µM	0.929	0.873	1.13	0.976	0.671

Cc1cc2c(F)c(Oc3ncnn4cc(OC[C@@H](C)O)c(C)c34)ccc2[nH]1 [Brivanib]
relative viability
Settings	KHOS-240S	MES-SA	RD	SW1353	SYO-1
0.00017 µM	1.04	0.897	1.07	0.963	0.941
0.00051 µM	1.035	0.908	1.06	0.991	0.936
0.00152 µM	1.03	0.8964	1.08	0.952	0.931
0.00457 µM	1.05	0.892	1.07	0.96	0.935
0.01372 µM	1.05	0.919	1.11	0.976	0.919
0.04115 µM	1.04	0.917	1.1	0.935	0.925
0.1235 µM	1.04	0.921	1.1	0.944	0.921
0.3704 µM	1.05	0.935	1.091	1.01	0.906
1.111 µM	1.03	0.934	1.08	0.982	0.861
3.333 µM	1.041	0.926	1.07	1	0.792
10 µM	0.961	0.636	0.964	0.997	0.609
